According to patent US20220226283A1, “COMBINATION PRODUCT CONTAINING LIMONOID COMPOUND AND DPP-4 INHIBITOR” (ZHEJIANG YANGSHENGTANG INSTITUTE OF NATURAL MEDICATION CO., …, priority 2019, published 2022):

Test system: mouse model of type II diabetes with pancreatic islet damage and obesity (ICR mice, STZ and high-fat diet)
Test: Blood glucose in mouse type II diabetes model with pancreatic islet damage and obesity (limonoid compound, alogliptin or combination)
Format: in vivo
Conditions: single administration 0.5 g/kg per day by gavage, two weeks, 1 h after the last administration, mean ± SD
Excerpt: In this example, a mouse model of type II diabetes with pancreatic islet damage and obesity was established by multiple modeling ICR mice with a small dose of streptozotocin (STZ), following with continuous high-fat diets (referring to literature: Zhang Jiyuan et al, Study on the effect of three plant extracts on improving glucose and lipid metabolism in type 2 diabetic mice, Food and Machinery, 2016, 32 (12): 142-147). […]
Experimental grouping: 15 male mice were randomly selected as the normal control group, and the remaining mice were subjected to a high-fat diet (high-fat diet formula: cholesterol 1%, egg yolk powder 10%, lard oil 10%, and basic feed 79%, for establishing an obesity mouse model) for consecutive 4 weeks and intraperitoneal injection of STZ at a dose of 35 mg/kg for three consecutive days. After one week, the mice were subject to 24 hours of fasting and water deprivation, their fasting blood glucose was measured, and the mice with a blood glucose level of 15 to 25 mmol/L were selected and undifferentiatedly grouped and used in the experiment, continuously subjected to the high-fat diet, 15 mice in each group, and subjected to blood sampling and detection of indicators after 2 weeks of administration. […]

With `Cn1c(=O)cc(N2CCC[C@@H](N)C2)n(Cc2ccccc2C#N)c1=O` [Alogliptin, alogliptin] the Blood glucose value was 14.5 ± 2.8 mmol/L.
